“And” between values parts separate entries of the source, which are not always exact repeats. Equal entries are not always repeated. Inconclusive results and toxic doses are left out. Rule for the calls: active = survival T/C of 150% or more; inactive = T/C below 125% in these data.
Test system: P388 leukemia ip, CD2F1 mice, survival T/C
Experiment: NCI In Vivo Anticancer Drug Screen. Data for tumor model P388 Leukemia (intraperitoneal) in CD2F1 (CDF1) mice
Details: endpoint: median survival time, higher = longer survival
How it was run: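 Mice carrying the transplanted tumor received test compound or vehicle. Survival was recorded in each group, and the value is the treated-group measurement divided by that of the vehicle-treated control group.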

[1] = dose: 100.0 mg/kg/injection, schedule: Q01DX001 (ip), vehicle: saline
[2] = dose: 50.0 mg/kg/injection, schedule: Q01DX009 (ip), vehicle: saline
[3] = dose: 100.0 mg/kg/injection, schedule: Q01DX009 (ip), vehicle: saline
[4] = dose: 50.0 mg/kg/injection, schedule: Q01DX009 (ip), vehicle: Klucel (hydroxypropylcellulose) (HPC)
[5] = dose: 100.0 mg/kg/injection, schedule: Q01DX009 (ip), vehicle: Klucel (hydroxypropylcellulose) (HPC)
[6] = dose: 200.0 mg/kg/injection, schedule: Q01DX009 (ip), vehicle: Klucel (hydroxypropylcellulose) (HPC)
[7] = dose: 3.13 mg/kg/injection, schedule: Q01DX009 (ip), vehicle: saline with Tween-80
[8] = dose: 6.25 mg/kg/injection, schedule: Q01DX009 (ip), vehicle: saline with Tween-80
[9] = dose: 12.5 mg/kg/injection, schedule: Q01DX009 (ip), vehicle: saline with Tween-80
[10] = dose: 50.0 mg/kg/injection, schedule: Q01DX005 (ip), vehicle: saline with Tween-80
[11] = dose: 100.0 mg/kg/injection, schedule: Q01DX005 (ip), vehicle: saline with Tween-80
[12] = dose: 200.0 mg/kg/injection, schedule: Q01DX005 (ip), vehicle: saline with Tween-80
[13] = dose: 50.0 mg/kg/injection, schedule: Q01DX005 (ip), vehicle: Klucel (hydroxypropylcellulose) (HPC)
[14] = dose: 100.0 mg/kg/injection, schedule: Q01DX005 (ip), vehicle: Klucel (hydroxypropylcellulose) (HPC)
[15] = dose: 200.0 mg/kg/injection, schedule: Q01DX005 (ip), vehicle: Klucel (hydroxypropylcellulose) (HPC)
[16] = dose: 12.5 mg/kg/injection, schedule: Q01DX009 (ip), vehicle: Klucel (hydroxypropylcellulose) (HPC)
[17] = dose: 25.0 mg/kg/injection, schedule: Q01DX009 (ip), vehicle: Klucel (hydroxypropylcellulose) (HPC)
[18] = dose: 50.0 mg/kg/injection, schedule: Q01DX009 (ip), vehicle: saline with Tween-80
[19] = dose: 100.0 mg/kg/injection, schedule: Q01DX009 (ip), vehicle: saline with Tween-80
[20] = dose: 200.0 mg/kg/injection, schedule: Q01DX009 (ip), vehicle: saline with Tween-80

Measured: T/C

COc1ccc(S(=O)(=O)c2cnc(N/N=C/c3ccc([N+](=O)[O-])o3)nc2N)cc1
inactive: [1] 93 % of control | dose: 200.0 mg/kg/injection, schedule: Q01DX001 (ip), vehicle: saline 90 % of control | dose: 400.0 mg/kg/injection, schedule: Q01DX001 (ip), vehicle: saline 90 % of control

O=c1cc(O)c1=O
inactive: dose: 0.78 mg/kg/injection, schedule: Q01DX009 (ip), vehicle: saline 96 % of control | dose: 1.56 mg/kg/injection, schedule: Q01DX009 (ip), vehicle: saline 109 % of control | dose: 3.13 mg/kg/injection, schedule: Q01DX009 (ip), vehicle: saline 91 % of control | dose: 6.25 mg/kg/injection, schedule: Q01DX009 (ip), vehicle: saline 98 % of control

C=C1C(=O)OC(CCCCCCCCCCCCC)C1C(=O)O (configuration not stated)
inactive: dose: 0.25 mg/kg/injection, schedule: Q01DX009 (ip), vehicle: saline with Tween-80 99 % of control | dose: 0.5 mg/kg/injection, schedule: Q01DX009 (ip), vehicle: saline with Tween-80 101 % of control | dose: 1.0 mg/kg/injection, schedule: Q01DX009 (ip), vehicle: saline with Tween-80 100 % of control

NNc1cc2c(nn1)CCN(C(=O)c1ccccc1)C2
inactive: [2] 98 % of control | [3] 108 % of control

COc1ccc(OC)c(N2C(=O)C(=O)C(C(C)=O)C2=O)c1 (configuration not stated)
inactive: [4] 107 % of control | [5] 101 % of control | [6] 105 % of control

CCCCCCCC[N+](C)(C)CCSCC[N+](C)(C)CCCCCCCC
inactive: [7] 99 % of control | [8] 96 % of control | [9] 114 % of control

Cc1ccc(SCc2c(COc3ccc(Cl)cc3)sc3ccc(Cl)cc23)cc1
inactive: dose: 100.0 mg/kg/injection, schedule: Q01DX001 (ip), vehicle: saline with Tween-80 90 % of control | dose: 200.0 mg/kg/injection, schedule: Q01DX001 (ip), vehicle: saline with Tween-80 86 % of control | dose: 400.0 mg/kg/injection, schedule: Q01DX001 (ip), vehicle: saline with Tween-80 100 % of control

CC1NC(C)N2C(C)N12 (configuration not stated)
inactive: dose: 25.0 mg/kg/injection, schedule: Q01DX001 (ip), vehicle: saline 105 % of control | dose: 50.0 mg/kg/injection, schedule: Q01DX001 (ip), vehicle: saline 104 % of control | [1] 104 % of control

CC(=O)Nc1ccc(S(=O)(=O)NC(CCC(N)=O)C(=O)O)cc1 (configuration not stated)
inactive: dose: 100.0 mg/kg/injection, schedule: Q01DX001 (ip), vehicle: Klucel (hydroxypropylcellulose) (HPC) 95 % of control | dose: 200.0 mg/kg/injection, schedule: Q01DX001 (ip), vehicle: Klucel (hydroxypropylcellulose) (HPC) 100 % of control | dose: 400.0 mg/kg/injection, schedule: Q01DX001 (ip), vehicle: Klucel (hydroxypropylcellulose) (HPC) 92 % of control

Nc1nc(N)c2c(n1)NCN(O)C2
inactive: [10] 97 % of control | [11] 99 % of control | [12] 100 % of control

CC1=C2CCC3(C)C(=C2OC1=O)C(C)=C(Cl)C(Br)C3Br (configuration not stated)
inactive: [13] 102 % of control | [14] 111 % of control | [15] 118 % of control

CN(C)c1ccc2c(Cl)cc(Cl)nc2c1
inactive: [16] 109 % of control | [17] 109 % of control | [4] 107 % of control | [5] 106 % of control | [6] 103 % of control | dose: 400.0 mg/kg/injection, schedule: Q01DX009 (ip), vehicle: Klucel (hydroxypropylcellulose) (HPC) 104 % of control

O=S1(=O)CS/C(=N/C(=S)N(Cc2ccccc2)Cc2ccccc2)N1c1ccccc1
inactive: dose: 50.0 mg/kg/injection, schedule: Q04DX003 (ip), vehicle: saline with Tween-80 89 % of control | dose: 100.0 mg/kg/injection, schedule: Q04DX003 (ip), vehicle: saline with Tween-80 104 % of control | dose: 200.0 mg/kg/injection, schedule: Q04DX003 (ip), vehicle: saline with Tween-80 111 % of control

CCOC(=O)Nc1ccc2nc(N3CCCCCC3)sc2c1
inactive: [18] 101 % of control | [19] 100 % of control | [20] 102 % of control

CS(=O)(=O)c1snc(N)c1C#N
inactive: dose: 12.5 mg/kg/injection, schedule: Q01DX005 (ip), vehicle: saline with Tween-80 106 % of control | dose: 25.0 mg/kg/injection, schedule: Q01DX005 (ip), vehicle: saline with Tween-80 101 % of control | [10] 102 % of control

CCOC(=O)c1ccc(NC(=O)Nc2scc[n+]2C)cc1
inactive: dose: 12.5 mg/kg/injection, schedule: Q01DX009 (ip), vehicle: distilled water + Tween-80 93 % of control | dose: 25.0 mg/kg/injection, schedule: Q01DX009 (ip), vehicle: distilled water + Tween-80 102 % of control | dose: 50.0 mg/kg/injection, schedule: Q01DX009 (ip), vehicle: distilled water + Tween-80 108 % of control | dose: 100.0 mg/kg/injection, schedule: Q01DX009 (ip), vehicle: distilled water + Tween-80 100 % of control | dose: 200.0 mg/kg/injection, schedule: Q01DX009 (ip), vehicle: distilled water + Tween-80 90 % of control

COC(=O)CCC1=C(C)c2cc3[nH]c(cc4[nH]c(cc5nc(cc1n2)C(CCC(=O)OC)=C5C)c(C1CC1C(=O)OC)c4C)c(C1CC1C(=O)OC)c3C (configuration not stated)
inactive: [13] 104 % of control | [14] 104 % of control | [15] 109 % of control

O=C(CN1CCCCC1)Nc1cccc(Cl)c1
inactive: [18] 100 % of control | [2] 103 % of control | [19] 100 % of control | [3] 107 % of control | [20] 123 % of control | dose: 200.0 mg/kg/injection, schedule: Q01DX009 (ip), vehicle: saline 120 % of control

CCOC(=O)C1=C(C)NC(SC)=NC1c1ccccc1 (configuration not stated)
inactive: dose: 60.0 mg/kg/injection, schedule: Q01DX005 (ip), vehicle: Klucel (hydroxypropylcellulose) (HPC) 99 % of control | dose: 120.0 mg/kg/injection, schedule: Q01DX005 (ip), vehicle: Klucel (hydroxypropylcellulose) (HPC) 97 % of control | dose: 240.0 mg/kg/injection, schedule: Q01DX005 (ip), vehicle: Klucel (hydroxypropylcellulose) (HPC) 99 % of control

CCOC(=O)COc1ccc(Cc2ccc3c(c2)OCO3)cc1C
inactive: [10] 97 % of control | [11] 97 % of control | [12] 93 % of control

C/C([O-])=N/c1n[n+](-c2ccc(Cl)cc2)no1
inactive: dose: 3.12 mg/kg/injection, schedule: Q01DX009 (ip), vehicle: other 98 % of control | dose: 6.25 mg/kg/injection, schedule: Q01DX009 (ip), vehicle: other 100 % of control | dose: 12.5 mg/kg/injection, schedule: Q01DX009 (ip), vehicle: other 103 % of control | dose: 25.0 mg/kg/injection, schedule: Q01DX009 (ip), vehicle: other 101 % of control | dose: 50.0 mg/kg/injection, schedule: Q01DX009 (ip), vehicle: other 112 % of control | dose: 100.0 mg/kg/injection, schedule: Q01DX009 (ip), vehicle: other 112 % of control

CC(=O)CC(=O)C1C(S[As](C)C)CC2C3CCC4=CC(=O)C=CC4(C)C3C(=O)CC21C (configuration not stated)
inactive: [13] 102 % of control | [14] 91 % of control and 94 % of control | [15] 94 % of control and 98 % of control

O=C(CNC(=O)c1ccc(Cl)cc1Cl)N/N=C/c1cccc([N+](=O)[O-])c1
inactive: [7] 91 % of control | [8] 92 % of control | [9] 106 % of control

Cc1c(NC(=O)CCl)c(=O)oc2c(C)c3occc(=O)c3cc12
inactive: dose: 30.0 mg/kg/injection, schedule: Q01DX005 (ip), vehicle: saline with Tween-80 100 % of control | dose: 60.0 mg/kg/injection, schedule: Q01DX005 (ip), vehicle: saline with Tween-80 89 % of control and 97 % of control | dose: 120.0 mg/kg/injection, schedule: Q01DX005 (ip), vehicle: saline with Tween-80 90 % of control | dose: 240.0 mg/kg/injection, schedule: Q01DX005 (ip), vehicle: saline with Tween-80 99 % of control

CCOC(=O)/C(C#N)=C(/SC)N1CC1
inactive: [16] 100 % of control | [17] 93 % of control | [4] 110 % of control and 90 % of control

Reference: PubChem BioAssay AID330 (DTP/NCI, 2004)
